Measured values from a melting point compilation (Tetko et al.; mined from patent text by program, amines drawn as free bases though some values may be those of a salt).

Row | melting point [°C] | Compound
1 | 220 to 221 | CCCc1nc2cccc(C(=S)OC)c2n1Cc1ccc(-c2ccccc2-c2nc(=O)o[nH]2)cc1
2 | 210 to 211 | COc1ccc(C=CC(=O)Nc2cnc3cc(C)c(C)cc3c2-c2ccccc2Cl)cc1OC
3 | 160 to 163 | CCOC(=O)C(Cc1ccc(C#N)cc1)(NC(C)=O)C(=O)OCC
4 | 410 | O=c1[nH]c2c(cc1S(=O)(=O)c1ccccc1)CCc1cc[nH]c1-2
5 | 226 to 230 | COc1cc2ncc(C#N)c(Nc3cccc(F)c3)c2cc1OC
6 | 155 to 158 | CS(=O)(=O)c1ccc(-c2cnn(CC(F)(F)F)c(=O)c2NC2CCc3ccccc32)cc1 (centres undefined)
7 | 180 to 182 | CC(=O)Nc1cccc(-c2ccc3nc(-c4cccnc4N)n(-c4ccc(CNS(=O)(=O)c5ccccc5)cc4)c3n2)c1
8 | 200 to 202 | O=C(Nc1cccc(C(F)(F)F)c1)c1cccnc1NCc1ccc(=O)[nH]c1
9 | 54 to 55 | CC(=CCO)c1ccc(C2CCCCC2)cc1
10 | 210 | O=C(O)CCCN1CCc2ccc(S(=O)(=O)Nc3ccc(Cl)cc3)cc2C1
11 | 74 to 77 | CCCNS(=O)(=O)c1cccc(C)c1C#N
12 | 154 to 156 | O=C(c1ccccc1)n1cc(-c2ccccc2)c2ccccc21
13 | 189 to 191 | c1cn(Cc2ccc(OCc3nnn[nH]3)cc2)cn1
14 | 290 to 292 | Cc1[nH]c(=O)ccc1-c1ccc2nccn2c1
15 | 72 to 75 | NC(=O)N(O)CCOCc1ccco1
16 | 188 to 189 | CN(C(=O)CNc1nc(-c2ccc(C(F)(F)F)cc2)nc(-c2ccccc2)c1Cl)C1CC1
17 | 178 to 179 | CSC(Cc1ccc2oc(Cc3nc(-c4ccccc4)oc3C)cc2c1)C(=O)O (centres undefined)
18 | 204 | O=C(OCc1ccncc1)c1ccc2[nH]c(=O)n(Cc3ccc4c(c3)OCO4)c(=O)c2c1
19 | 133 to 136 | NCc1ccc(N2C(=O)N(c3ccccc3Br)Cc3cnc(Nc4ccccc4)nc32)cc1
20 | 233 to 235 | O=C1NC(=O)C(c2ccc(-c3ccccc3)s2)O1 (centres undefined)
21 | 116 to 117 | Cc1cccc(-c2nc(CCOc3ccc(/C=C/CO)cc3)c(C)o2)c1
22 | 201 to 203 | COc1cc(OC)nc(NC(=O)N=NS(=O)(=O)C2N(C)C=CN2C)n1
23 | 75 to 80 | CCCCC(c1cccc(C(F)(F)F)c1)n1ccc2cc(-c3ccccc3-c3nn[nH]n3)ccc21 (centres undefined)
24 | 194 to 195 | Cc1nc(N(C)c2cccnc2)sc1-c1ccnc(Nc2ccc(N3CCOCC3)cc2)n1

Row | melting point [°C] | Compound
25 | 58 to 59 | CCCCCCCCCCCCCCCCN(CCCC)CCCCCCO
26 | 181 to 182 | COc1cccc(-c2cn(N)c(N)n2)c1
27 | 144 to 146 | CCN(CC)CCNC(=O)c1cccc2c(=O)c3c(I)cccc3[nH]c12
28 | 81.2 to 82.5 | O=C1c2ccccc2C(=O)N1OC1CCCC1
29 | 175 to 176 | CC(=O)O[C@@H]1OCC[C@@H]1NC(=O)[C@H](CC(C)C)NC(=O)[C@H](CC(C)C)NC(=O)OCc1ccccc1
30 | 82 to 83 | COc1ccc2[nH]c(Br)c(CCNC(=O)C3CC3)c2c1
31 | 153 to 154 | ON=C1OC2C=CC1CC2 (centres undefined)
32 | 148 to 152 | COC(=O)c1ccc(-c2nnc(CSCCOc3ccc(Cl)cc3Cl)o2)cc1
33 | 201 to 202 | CCOC(=O)c1nnc(NS(=O)(=O)c2ccc(NC(C)=O)cc2)s1
34 | 261 to 262 | O=CNc1ncc(C#Cc2ccc(Cl)cc2)c(Sc2ccc(O)cc2)n1
35 | 176 to 177 | N=C(N)NCCCCOc1ccc2c(c1)NC(=O)C(CCC(=O)O)C2 (centres undefined)
36 | 216 to 218 | O=C(O)COc1ccc2c(-c3ccc(O)cc3F)noc2c1Cl
37 | 160 to 163 | COC(COC(=O)C1=C(C)NC2=C(C(=O)CNC2)C1c1cccc(Cl)c1C)c1ccccc1 (centres undefined)
38 | 153 to 157 | CCCCOC(=O)n1nc(-c2cc(Cl)c(C)c(Cl)c2)ccc1=O
39 | 210 to 212 | Cc1cc(C)c(Nc2nc(C)ncc2S(=O)(=O)c2ccc(-c3cncnc3)cc2)c(C)c1
40 | 136 to 137 | CC(C)(C)c1ccc(CCC(O)CCC2CCCCC2)cc1NC(=O)CC1c2ccccc2Oc2ccccc21 (centres undefined)
41 | 175 to 176 | CC(=O)Nc1c(C(=O)c2ccc(Cl)cc2)[nH]c2cc(Cl)ccc12
42 | 123 to 124 | CCOc1cc(Oc2cc(C)[nH]n2)ccc1[N+](=O)[O-]
43 | 159 to 160 | COc1cc(Br)ccc1C12CC3CC(CC(C3)C1)C2
44 | 69 to 70 | CCCCC(CC)COC(=O)C(C#N)=C1C=C(C)N(CCCC)C(C)=C1 (centres undefined)
45 | 159 to 160 | O=C(CCc1ccc2ccccc2n1)NO
46 | 193 to 195 | CC1(CCn2c(=O)oc3ccccc32)Cn2cc([N+](=O)[O-])nc2O1 (centres undefined)
47 | 368 to 372 | CC(C)(C)NC1=NS(=O)(=O)c2sc(Cl)cc2N1
48 | 133 to 136 | Cc1ccnc2[nH]c(=O)c(CC(=O)N(CCNC(=O)OC(C)(C)C)CC(=O)O)cc12

Row | melting point [°C] | Compound
49 | 229 | N#CC1(C#N)C2CC(C3OC32)C1(Cl)Cl (centres undefined)
50 | 132 to 133 | CCOC(=O)c1c(CCl)nc2sc3c(c2c1-c1ccc(OC)c(OC)c1)CCN(C(=O)c1ccc(Cl)cc1)C3
51 | 106 | COCCNc1cc(NCCOC)c([N+](=O)[O-])cc1Cl
52 | 212 to 214 | CC(C)(C)OC(=O)Nc1ccc(C(=O)N2CCC(c3[nH]nc4c3C(=O)c3c(NC(=O)NN5CCOCC5)cccc3-4)CC2)cc1
53 | > 210 | O=C1CCN(c2ccc(C=C3SC(=O)NC3=O)cc2Br)CC1
54 | 213 to 214 | CC(=O)NCC1CN(c2cc(F)c(N3CCN(C(=O)COC(=O)c4cccnc4)CC3)c(F)c2)C(=O)O1 (centres undefined)
55 | 144 to 145 | O=C(CCc1ccccc1)N[C@H](Cc1ccc(C(F)(F)F)cc1)[C@@H](O)c1ccc(F)cc1 (racemic)
56 | 101 to 102 | CCCc1c(OCCCOc2ccc(C(=O)OCC)cc2Cl)ccc(C(C)=O)c1O
57 | 108 to 109 | N=C(Nc1ccc(C(F)(F)F)cc1)c1ccc(Cl)cc1Cl
58 | 129 to 131 | CC1(C)OC(C=Cc2cc(Cl)cc(Cl)c2)=CC1=O
59 | 132 to 135 | COC(=O)c1ccccc1-c1nn[nH]n1
60 | < 50 | c1cc2sccc2cn1
61 | 125 to 126 | NS(=O)(=O)C1(c2ncc(C(F)(F)F)cc2Cl)C=CC(Cl)=CC1Cl (centres undefined)
62 | 60 | CC(C)=CCOC1=CC(=O)c2ccccc2C1=O
63 | 172 to 174 | Oc1cccc2nc(Cc3ccccc3)[nH]c12
64 | 264 to 266 | CC1(C)Oc2ccc(S(=O)(=O)C(F)(F)F)cc2[C@@H](N2Cc3ccc([N+](=O)[O-])cc3C2=O)[C@@H]1O (relative stereo)
65 | 156 | CCCOc1n[nH]c(=O)[nH]1
66 | 200 to 201 | Cc1oc(-c2ccc(C(F)(F)F)cc2)cc1C(=O)Nc1cccc(CCC(=O)O)c1
67 | 131 to 133 | COc1cccc(C(CCN2CCN(Cc3cccc(F)c3)CC2)C2(O)CCCCC2)c1 (centres undefined)
68 | 181 to 183 | COc1ccc2cnc(N)nc2c1C1CCCC1
69 | 93 to 95 | CCC(/C=C(\OC)C(=O)OC)=C\c1cc2ccccc2[nH]1
70 | 142 to 143 | CCOC(=O)c1cnc(-c2ccccc2)nc1OCc1ccc(OCc2nc(-c3ccco3)oc2C)c(OC)c1
71 | 171 to 173 | COc1cc2c(Nc3ccc(Cl)cc3F)ncnc2cc1OCCNC1CCCC1
72 | 85 to 87 | Cc1cc([N+](=O)[O-])ccc1N=C1SCC2(CCCC2)N1CC1CCCCC1

Row | melting point [°C] | Compound
73 | 192 to 195 | C[C@H](NC(=O)c1ccc(Cn2nnc(-c3ccc(OC(=O)C(C)(C)C)cc3)n2)cc1)C(=O)O
74 | 117 to 118 | COc1ccc2cc(-c3cccnc3)cc(C)c2n1
75 | 134 to 137 | CSCc1cc(N)ccc1N1C(=O)c2ccc(Cl)cc2C1=O
76 | 175 to 177 | c1ccc(CSc2nc3cnccc3[nH]2)cc1
77 | 145 to 147 | CON(c1ccc(C#N)cc1Cl)S(=O)(=O)c1ccc(C)cc1
78 | 168 to 170 | C#Cc1ccc(CO[C@@H]2COc3nc([N+](=O)[O-])cn3C2)cn1
79 | 108 to 110 | C=CCOC(=O)C=CC(=O)NC(N)=O
80 | 156 to 158 | COc1cccc(Nn2cnc(C)c2-c2ccccc2)c1
81 | 187 to 188 | CN(C)C(=O)N1CCC(Nc2ncc3ncnc(Nc4ccc(F)c(Cl)c4)c3n2)CC1
82 | 98 to 100 | N#Cc1cccnc1N1CCN(CC(=O)Nc2ccc(F)cc2)CC1
83 | 133 to 136 | COc1ccc(N2C(=O)Cc3ccccc32)cc1F
84 | 99 | Cc1cccc(C)c1N(Cn1cnc(Cl)c1Cl)C(=O)CCl
85 | 227 to 229 | CC(=O)NCc1cccc(Nc2nccc(-c3sc(-c4ccc(C)nc4)nc3C)n2)c1
86 | 186 | COc1c(Br)c(-c2csc(C(C)C)n2)cc2oc(=O)c(Cl)c(C)c12
87 | 67 to 69 | COc1cccc(CC(c2ccccc2)N(CCO)CCO)c1 (centres undefined)
88 | 151 to 152 | CC(C)n1c(/C=C/COc2ccc(C(=O)C(=O)O)cc2)c(-c2ccc(F)cc2)c2ccccc21
89 | 330 | Cc1c(Cl)cc(NC(=O)C(=O)Nc2cc(Cl)c(C)c(Cl)c2O)c(O)c1Cl
90 | 57 to 59 | CC1C(=O)Oc2cc(N3CCCCCC3)ccc21 (centres undefined)
91 | 191 to 192 | COc1ccc(-c2nc(C)nn2-c2ccc(S(N)(=O)=O)cn2)cc1
92 | 318 to 320 | CCCC(=O)c1c[nH]c2c(N3C(=O)c4ccccc4C3=O)cccc2c1=O
93 | 128 to 129 | NC(c1ccnc(F)c1)C(O)c1cccc(C(F)(F)F)c1 (centres undefined)
94 | 137 to 138 | O=C1OC(OC(=O)c2cccnc2Cl)c2ccccc21 (centres undefined)

Row | Compound | melting point [°C]
95 | COC(=N)N1CCC(c2n[nH]c3cc(F)ccc23)CC1 | 162 to 164
96 | CCS(=O)c1c(C#N)nn(-c2c(Cl)cc(C(F)(F)F)cc2Cl)c1NCCSC (centres undefined) | 111 to 113
97 | CN1C(=O)N(C)C(=O)C(C(N)=O)(c2ccc(Cl)cc2)C1=O | 225 to 227
98 | Cn1cncc1C(O)(c1ccc(Cl)cc1)c1ccc2c(c1)C(c1cccc(Cl)c1)SCC(=O)N2CC1CC1 (centres undefined) | 245
99 | COc1ccc(COCc2nnc3n2-c2ccc(Cl)cc2C(c2ccccc2)=NC3)cc1 | 157 to 159
